Laboratory results taken from publication PMC4359537, “Pharmacological characterisation of murine α4β1δ GABAA receptors expressed in Xenopus oocytes” (BMC Neuroscience, 2015).
Where “and” joins values, the source holds several entries; their conditions need not be identical. Identical values can stand only once. Entries after “also recorded” stand apart in the source; their conditions may differ. Like-named read-outs stand apart in the source and are kept apart here.

Experiments:
[1] = molecular target: T1, α4β1δ receptors (UniProt P18506+P50571+Q9D6F4); experiment: Two-electrode voltage-clamp of murine α4β1δ GABAA receptors expressed in Xenopus oocytes; format: cell-based, mouse
T1 construct: expressed in transfected cells; host or cells: Xenopus laevis oocytes, cDNA-injected (pRK5 vector), ratio 1:1:5
T1 sequence (Q9D6F4 36-552): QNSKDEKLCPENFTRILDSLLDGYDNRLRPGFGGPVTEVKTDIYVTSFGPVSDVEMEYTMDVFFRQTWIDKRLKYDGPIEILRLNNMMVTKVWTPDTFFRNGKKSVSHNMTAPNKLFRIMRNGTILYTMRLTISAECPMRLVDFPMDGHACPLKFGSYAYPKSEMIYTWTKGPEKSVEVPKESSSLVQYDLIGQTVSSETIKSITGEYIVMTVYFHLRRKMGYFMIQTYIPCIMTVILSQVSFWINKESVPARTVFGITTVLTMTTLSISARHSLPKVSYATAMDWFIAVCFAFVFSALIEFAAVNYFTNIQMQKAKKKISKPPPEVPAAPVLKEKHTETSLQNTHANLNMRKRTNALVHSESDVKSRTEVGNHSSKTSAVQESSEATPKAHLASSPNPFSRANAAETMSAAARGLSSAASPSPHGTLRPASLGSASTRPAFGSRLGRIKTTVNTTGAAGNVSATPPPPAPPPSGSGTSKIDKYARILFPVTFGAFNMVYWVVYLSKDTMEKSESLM
T1 sequence (P50571 26-474): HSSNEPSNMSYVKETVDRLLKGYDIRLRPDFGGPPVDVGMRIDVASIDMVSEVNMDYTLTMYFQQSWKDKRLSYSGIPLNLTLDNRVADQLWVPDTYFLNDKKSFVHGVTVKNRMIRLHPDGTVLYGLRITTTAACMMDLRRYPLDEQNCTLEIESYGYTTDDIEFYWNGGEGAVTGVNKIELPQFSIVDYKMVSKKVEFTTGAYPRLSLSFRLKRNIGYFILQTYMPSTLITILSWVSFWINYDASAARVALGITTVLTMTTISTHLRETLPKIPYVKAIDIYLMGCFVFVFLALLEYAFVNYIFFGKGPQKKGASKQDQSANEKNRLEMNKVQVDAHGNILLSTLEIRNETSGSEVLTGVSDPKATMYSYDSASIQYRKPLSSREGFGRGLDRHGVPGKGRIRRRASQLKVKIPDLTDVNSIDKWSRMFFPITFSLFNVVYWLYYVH
T1 sequence (P18506 17-449 limits assumed): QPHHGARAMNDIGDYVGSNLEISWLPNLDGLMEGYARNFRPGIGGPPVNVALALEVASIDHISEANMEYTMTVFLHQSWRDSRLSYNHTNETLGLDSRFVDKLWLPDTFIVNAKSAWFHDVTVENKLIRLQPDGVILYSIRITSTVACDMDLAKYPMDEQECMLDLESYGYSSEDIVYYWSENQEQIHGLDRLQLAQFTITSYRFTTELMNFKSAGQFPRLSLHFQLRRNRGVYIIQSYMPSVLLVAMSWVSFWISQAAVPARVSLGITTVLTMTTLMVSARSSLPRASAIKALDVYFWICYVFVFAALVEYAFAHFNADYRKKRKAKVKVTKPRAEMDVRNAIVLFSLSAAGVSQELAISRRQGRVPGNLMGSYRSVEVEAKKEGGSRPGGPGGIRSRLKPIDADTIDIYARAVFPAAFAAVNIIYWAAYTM
Protocol: (§1) Oocytes from Xenopus laevis toads were prepared as described. […] To obtain free oocytes, ovarian lobes were cut into pieces and incubated in OR2 (85 mM NaCl, 5 mM HEPES, 1 mM MgCl2, pH adjusted to 7.6 with KOH) supplemented with 2-2.5 mg/mL collagenase type 1 (Lorne Laboratories, Danehill, UK) for 3-4 hrs. Oocytes were washed several times in OR2 and subsequently in Barth’s solution (88 mM NaCl, 1 mM KCl, 0.33 mM Ca(NO3)2, 0.41 mM CaCl2, 0.82 mM MgSO4, 2.4 mM NaHCO3, 10 mM HEPES, pH adjusted to 7.6 with NaOH) to isolate cells and remove follicular membranes. After preparation, the oocytes were injected with 27 or 55 nL of 30 ng/μL cDNA in a ratio of 1:1 (α4β1) or 1:1:5 (α4β1δ). Oocytes were subsequently maintained at 18°C in Barth’s solution supplemented with gentamycin (Invitrogen, Paisley, UK).
(§2) Electrodes were filled with 3 M KCl and had resistances of 0.5 to 3 MΩ. The oocytes were clamped at a holding potential of -60 mV and were perfused with buffer (100 mM NaCl, 2 mM KCl, 2 mM CaCl2, 1 mM MgCl2, 5 mM HEPES, pH adjusted to 7.4 with NaOH) throughout the recordings. All currents were adjusted when necessary for voltage drop using equation 1:1 I=Imeasured⋅Vh−Vrev/Vh−Vrev+ΔV
(§3) Drugs were applied using a fast application system coupled to a small bath volume ([…]), enabling drug onset times of ~ 10 ms.
(§4) For each co-application, the peak-response was measured. […] All monophasic inhibition-curves were fitted to a modified version of equation 2.
Normalized responses were pooled and plotted as mean ± SEM from at least four different oocytes taken from at least two different Xenopus toads. For statistical evaluation, a repeated measures ANOVA with Dunnett’s post test was used. The significance level was set at *P < 0.05, **P < 0.01, ***P < 0.001. For inhibition curves, an F-test was performed to determine whether the data was either monophasic or biphasic.

[2] = molecular target: α1β2γ2 receptors; settings: steady-state GABA responses, HEK293 cells; cited from earlier work
[3] = system: α6β3δ receptors; settings: cited from earlier work
[4] = molecular target: T2, α4β1 receptors (Mus musculus, UniProt P50571+Q9D6F4); experiment: Two-electrode voltage-clamp of murine α4β1 GABAA receptors expressed in Xenopus oocytes; format: cell-based; settings: for EC50: GABA-activated peak currents, oocytes clamped at -60 mV
T2 construct: expressed in transfected cells; host or cells: Xenopus laevis oocytes, cDNA-injected (pRK5 vector), ratio 1:1
T2 sequence (Q9D6F4 36-552): as the sequence (Q9D6F4 36-552) above
T2 sequence (P50571 26-474): as the sequence (P50571 26-474) above
Protocol: as §1, §2, §3, §4

[5] = molecular target: α2β1γ2 receptors; settings: Xenopus oocytes; cited from earlier work
[6] = inhibition of steady-state (desensitized) response after 70 s co-application with GABA EC75 (3 μM)
[7] = Hill coefficient of GABA concentration response curve
[8] = depending upon expression levels
[9] = inhibition of peak response to GABA EC20 after pre-application
[10] = inhibition of peak response to GABA EC75 (3 μM), 1 min pre-incubation
[11] = GABA EC75 (8 μM), biphasic inhibition

[Cl][Cu][Cl] [Cu^2+]
nH (± SEM) ([1]; Hill slope of inhibition curve, steady-state response, GABA EC75): −1.2 ± 0.13 | maximal inhibition of desensitized GABA responses ([1]; at 10 μM, GABA EC75, oocytes): 98 % inhibition | IC50 [1, 6]: 820 nM | pIC50 ± SEM [1, 6]: 6.09 ± 0.04 | IC50 [2]: 85000 nM | maximal inhibition of the steady-state response ([3]; HEK293): ~ 68% | IC50 ([3]; steady-state GABA responses, HEK293 cells): 65 nM

NCCCC(=O)O [GABA, γ-Aminobutyric acid]
nH (± SEM) [1, 7]: 1.1 and 1.1 ± 0.11 | maximal currents to GABA [1, 8]: 300 to 3000 nA | EC50 ([4]; read-out: EC50): 2700 nM | EC50 ([4]; read-out: pEC50 ± SEM (converted)): 2750 nM | nH (± SEM) [4, 7]: 0.87 and 0.87 ± 0.079 | maximal currents to GABA [4, 8]: 100 to 3000 nA

O=C(N/N=C/c1ccccc1O)c1ccccc1O [SCS, salicylidine salicylhydrazide]
steady-state level of inhibition ([1]; GABA EC20, incomplete inhibition of the GABA current): 67.2 ± 3.2 % of control | IC50 [1, 9]: 4.2 nM | pIC50 ± SEM [1, 9]: 8.37 ± 0.25 | IC50 [5]: 4.36 nM | maximum inhibition [5]: ~ 33%

C[C@]12CC[C@@H](O)C[C@H]1CC[C@@H]1[C@@H]2CC[C@]2(C)[C@@H](C(=O)CO)CC[C@@H]12 [THDOC, tetrahydro-deoxycorticosterone]
potentiation of GABA peak-response ([1]; THDOC 30 and 100 nM co-applied with GABA EC7, P < 0.05): significantly increased; also recorded: significant increase; also recorded: able to potentiate

[Cl-].[Cl-].[Zn+2] [Zn^2+]
nH (± SEM) ([1]; Hill slope of inhibition curve, peak response, GABA EC75): −0.75 ± 0.041 | potency shift in IC50 values, α4β1δ versus α4β1 ([1]; from low micromolar to mid nanomolar): approximately 60 fold | IC50 [1, 10]: 3300 nM | pIC50 ± SEM [1, 10]: 5.48 ± 0.03 | share of the total inhibition, high potency component (IC50A) [4, 11]: ~ 25% | share of the total inhibition, lower potency component (IC50B) [4, 11]: ~ 75% | pIC50A ± SEM ([4]; GABA EC75 (8 μM), high potency component of two-site fit): 9.87 ± 0.22 | IC50 ([4]; GABA EC75 (8 μM), high potency component of two-site fit, read-out: IC50A): 0.13 nM | pIC50B ± SEM ([4]; GABA EC75 (8 μM), lower potency component of two-site fit): 7.25 ± 0.13 | IC50 ([4]; GABA EC75 (8 μM), lower potency component of two-site fit, read-out: IC50B): 56 nM | nH (± SEM) ([4]; Hill slope of IC50B component, GABA EC75): -1.1 ± 0.13
